Experiment [1] concerns human stomach cancer cell line SNU-16 (FGFR2 gene amplification). Nature of the experiment: SNU-16 growth inhibition assay. Format: cell-based. To be noted: Homo sapiens, SNU-16, 72 h, read-out: SNU-16 (IC50 (nM)), cell growth, 3 days, Cell Counting Kit-8. As to the method: In this assay, the growth inhibitory activity of a test substance in a human stomach cancer cell line harboring FGFR2 gene amplification is measured.
Then, 10 μL of Cell Counting Kit-8 (Dojindo Laboratories, CK04) was added to each well, and the resultant was incubated for 1 to 2 hours in a 5% CO2 incubator (37° C.) to cause a color reaction. The absorbance value was measured with ENVISION™ (PerkinElmer Co., Ltd.) at 450 nm.
For orientation: Formazan colour is commonly taken as a measure of viable cells.

Experiment [2] deals with normal human umbilical vein endothelial cells (HUVEC). Nature of the experiment: HUVEC growth inhibition assay (VEGF-induced). Type of experiment: cell-based. The following applies: Homo sapiens, HUVEC, 72 h, read-out: HUVEC (IC50 (nM)), growth in the presence of VEGF 10 ng/mL, 3 days. As for the experimental part:
The absorbance value was measured with ENVISION™ (PerkinElmer Co., Ltd.) at 450 nm. The absorbance values of the wells without adding the test substance but with VEGF addition was defined as 100% and the absorbance values of the wells with neither the test substance nor VEGF addition was defined as 0%.

For the compound `CNC(=O)n1ccc2cc(Oc3ccnc(NC(=O)c4ccc(C5CCN(CCCF)CC5)cc4)c3)c(OC)cc21` [Example 5, 5-((2-(4-(1-(3-Fluoropropyl)piperidin-4-yl)benzamide)pyridin-4-yl)oxy)-6-methoxy-N-methyl-1H-indole-1-carboxamide], the IC50 amounted to 13.4 nM in experiment [1] and 387 nM in experiment [2]. For the compound `CNC(=O)n1ccc2cc(Oc3ccnc(NC(=O)c4ccc(C5CCNCC5F)cc4)c3)c(OC)cc21` (centres unmarked) [Example 6, 5-((2-(4-(3-Fluoropiperidin-4-yl)benzamide)pyridin-4-yl)oxy)-6-methoxy-N-methyl-1H-indole-1-carboxamide], the IC50 is 9.1 nM in experiment [1] and 180 nM in experiment [2]. For `CNC(=O)n1ccc2cc(Oc3ccnc(NC(=O)c4ccc(C5(F)CCNCC5)cc4)c3)c(OC)cc21` [Example 7, 5-((2-(4-(4-Fluoropiperidin-4-yl)benzamide)pyridin-4-yl)oxy)-6-methoxy-N-methyl-1H-indole-1-carboxamide] the same measures were 9.6 nM and 205 nM. As for `CNC(=O)n1ccc2cc(Oc3ccnc(NC(=O)c4ccc(N5CCC(N6CCCC6)CC5)cc4)c3)c(OC)cc21` [Example 8, 6-Methoxy-N-methyl-5-((2-(4-(4-(pyrrolidin-1-yl)piperidin-1-yl)benzamide)pyridin-4-yl)oxy)-1H-indole-1-carboxamide], the IC50 was 15.4 nM in experiment [1] and 140 nM in experiment [2]. For `CNC(=O)n1ccc2cc(Oc3ccnc(NC(=O)c4ccc(CN5C[C@H](OC)[C@@H](O)C5)cc4)c3)c(OC)cc21` [Example 10, 5-((2-(4-(((3S,4S)-3-Hydroxy-4-methoxypyrrolidin-1-yl)methyl)benzamide)pyridin-4-yl)oxy)-6-methoxy-N-methyl-1,4-indole-1-carboxamide], the values for the IC50 in experiment [1] and in experiment [2] were 28.7 nM and 350 nM, respectively. Turning to `CCN1CCN(CCc2ccc(C(=O)Nc3cc(Oc4cc5ccn(C(=O)NC)c5cc4OC)ccn3)cc2)CC1` [Example 11, 5-((2-(4-(2-(4-Ethylpiperazin-1-yl)ethyl)benzamide)pyridin-4-yl)oxy)-6-methoxy-N-methyl-1H-indole-1-carboxamide], the IC50 in experiment [1] was 14.5 nM; in experiment [2], 132 nM. In the case of `CNC(=O)n1ccc2cc(Oc3ccnc(NC(=O)c4ccc(OCCN5CCC(O)CC5)cc4)c3)c(OC)cc21` [Example 12, 5-((2-(4-(2-(4-Hydroxypiperidin-1-yl)ethoxy)benzamide)pyridin-4-yl)oxy)-6-methoxy-N-methyl-1H-indole-1-carboxamide], the values for the IC50 in experiment [1] and in experiment [2] were 13 nM and 141 nM, respectively. For `CCN1CCC(n2cc(C(=O)Nc3cc(Oc4cc5ccn(C(=O)NC)c5cc4OC)ccn3)cn2)CC1` [Example 13, 5-((2-(1-(1-Ethylpiperidin-4-yl)-1H-pyrazole-4-carboxamide)pyridin-4-yl)oxy)-6-methoxy-N-methyl-1H-indole-1-carboxamide], the IC50 is 10.9 nM in experiment [1] and 396 nM in experiment [2]. In the case of `CNC(=O)n1ccc2cc(Oc3ccnc(NC(=O)c4ccc(OC5CCN(CCO)CC5)cc4)c3)c(OC)cc21` [Example 14, 5-((2-(4-((1-(2-Hydroxyethyl)piperidin-4-yl)oxy)benzamide)pyridin-4-yl)oxy)-6-methoxy-N-methyl-1H-indole-1-carboxamide], the IC50 was 9.5 nM in experiment [1] and 169 nM in experiment [2]. As for `CNC(=O)n1ccc2cc(Oc3ccnc(NC(=O)c4ccc(C5CCN(C[C@@H](C)O)CC5)cc4)c3)c(OC(C)C)cc21` [Example 18, (R)-5-((2-(4-(1-(2-Hydroxypropyl)piperidin-4-yl)benzamide)pyridin-4-yl)oxy)-6-isopropoxy-N-methyl-1H-indole-1-carboxamide], the IC50 in experiment [1] is 13.9 nM; in experiment [2], 180 nM.

Take `CNC(=O)n1ccc2cc(Oc3ccnc(NC(=O)c4ccc(CN5CCC(O)CC5)cc4)c3)c(OC(F)F)cc21` [Example 19, 6-(Difluoromethoxy)-5-((2-(4-((4-hydroxypiperidin-1-yl)methyl)benzamide)pyridin-4-yl)oxy)-N-methyl-1H-indole-1-carboxamide]: the IC50 in experiment [1] worked out at 14.1 nM; in experiment [2] it was 151 nM. For `CNC(=O)n1ccc2cc(Oc3ccnc(NC(=O)c4ccc(C5CCN(C(C)C)CC5)cc4)c3)c(OCCOC)cc21` [Example 23, 5-((2-(4-(1-Isopropylpiperidin-4-yl)benzamide)pyridin-4-yl)oxy)-6-(2-methoxyethoxy)-N-methyl-1H-indole-1-carboxamide], the figures for the IC50 in experiment [1] and in experiment [2] were 6.5 nM and 300 nM, respectively. Take `CCOCCOc1cc2c(ccn2C(=O)NC)cc1Oc1ccnc(NC(=O)c2ccc(C3CN(CCO)C3)cc2)c1` [Example 27, 6-(2-Ethoxyethoxy)-5-((2-(4-(1-(2-hydroxyethyl)azetidin-3-yl)benzamide)pyridin-4-yl)oxy)-N-methyl-1H-indole-1-carboxamide]: the IC50 stood at 6.2 nM in experiment [1] and 218 nM in experiment [2]. Turning to `CCOCCOc1cc2c(ccn2C(=O)NC)cc1Oc1ccnc(NC(=O)c2ccc(C3CCN(CC)CC3)nc2)c1` [Example 28, 6-(2-Ethoxyethoxy)-5-((2-(6-(1-ethylpiperidin-4-yl)nicotinamide)pyridin-4-yl)oxy)-N-methyl-1H-indole-1-carboxamide], the IC50 came to 7.3 nM in experiment [1] and 664 nM in experiment [2]. For `CCOCCOc1cc2c(ccn2C(=O)NC)cc1Oc1ccnc(NC(=O)c2ccc(CN3CCC[C@H]3CO)cc2)c1` [Example 29] the same measures were 8.8 nM and 600 nM. Consider `CCOCCOc1cc2c(ccn2C(=O)NC)cc1Oc1ccnc(NC(=O)c2ccc(CN3C[C@@H](C)N[C@@H](C)C3)cc2)c1` [Example 30, 5-((2-(4-(((3S,5R)-3,5-Dimethylpiperazin-1-yl)methyl)benzamide)pyridin-4-yl)oxy)-6-(2-ethoxyethoxy)-N-methyl-1H-indole-1-carboxamide], for which the IC50 in experiment [2] stood at 566 nM. Turning to `CCOCCOc1cc2c(ccn2C(=O)NC)cc1Oc1ccnc(NC(=O)c2ccc(CN3CC[C@@H](O)C3)s2)c1` [Example 31], the IC50 in experiment [1] is 4.7 nM; in experiment [2] it was 186 nM.

As to `CCN1CCC(c2ccc(C(=O)Nc3cc(Oc4cc5ccn(C(=O)NC)c5cc4OCCCF)ccn3)cc2)CC1` [Example 33, 5-((2-(4-(1-Ethylpiperidin-4-yl)benzamide)pyridin-4-yl)oxy)-6-(3-fluoropropoxy)-N-methyl-1H-indole-1-carboxamide], the IC50 turned out to be 8.1 nM in experiment [1] and 274 nM in experiment [2]. In the case of `CNC(=O)n1ccc2cc(Oc3ccnc(NC(=O)c4ccc(CN5CCC[C@@H]5CO)s4)c3)c(OC)cc21` [Example 34], the IC50 in experiment [1] amounted to 14 nM; in experiment [2], 195 nM. `CNC(=O)n1ccc2cc(Oc3ccnc(NC(=O)c4ccc(CN5CCC[C@H]5CO)s4)c3)c(OC)cc21` [Example 35]: the IC50 in experiment [1] was found to be 9.8 nM; in experiment [2] it was 139 nM. For `CNC(=O)n1ccc2cc(Oc3ccnc(NC(=O)c4ccc(CN5C[C@@H](C)N[C@@H](C)C5)s4)c3)c(OC)cc21` [Example 36] the same measures were 11 nM and 136 nM. Taken in the same sequence, the figures for `CCN1CCN(Cc2ccc(C(=O)Nc3cc(Oc4cc5ccn(C(=O)NC)c5cc4OC)ccn3)s2)CC1` [Example 37] were 9.4 nM and 79.1 nM.

Take `CNC(=O)n1ccc2cc(Oc3ccnc(NC(=O)c4ccc(CN5CCC(O)CC5)s4)c3)c(OC)cc21` [Example 38]: the IC50 in experiment [1] was found to be 8 nM; in experiment [2], 137 nM.

For `CNC(=O)n1ccc2cc(Oc3ccnc(NC(=O)c4ccc(C5CCN(CC(C)(C)O)CC5)cc4)c3)c(OC)cc21` [Example 39], the IC50 turned out to be 7.8 nM in experiment [1] and 124 nM in experiment [2]. In the case of `CNC(=O)n1ccc2cc(Oc3ccnc(NC(=O)c4ccc(C5CCN(C(C)C)CC5)cc4)c3)c(OC)cc21` [Example 40], the IC50 in experiment [1] worked out at 8.3 nM; in experiment [2], 162 nM. Take `CNC(=O)n1ccc2cc(Oc3ccnc(NC(=O)c4ccc(OC5CCN(C[C@@H](C)O)CC5)cc4)c3)c(OC)cc21` [Example 41]: the IC50 is 9.3 nM in experiment [1] and 179 nM in experiment [2]. Take `CNC(=O)n1ccc2cc(Oc3ccnc(NC(=O)c4ccc(OC5CCN(C[C@H](C)O)CC5)cc4)c3)c(OC)cc21` [Example 42]: the IC50 in experiment [1] was found to be 14.1 nM; in experiment [2] it was 184 nM. With `CCN1CCC(Oc2ccc(C(=O)Nc3cc(Oc4cc5ccn(C(=O)NC)c5cc4OC)ccn3)cc2)CC1` [Example 43], the IC50 stood at 11.8 nM in experiment [1] and 166 nM in experiment [2]. Turning to `CNC(=O)n1ccc2cc(Oc3ccnc(NC(=O)c4cnn(C5CCN(C[C@@H](C)O)CC5)c4)c3)c(OC)cc21` [Example 44], the IC50 turned out to be 16.3 nM in experiment [1] and 392 nM in experiment [2].

For the compound `CNC(=O)n1ccc2cc(Oc3ccnc(NC(=O)c4ccc(CN5CCC[C@H]5CO)s4)c3)c(OCCOC)cc21` [Example 83], the IC50 in experiment [2] is 310 nM. For `CCOCCOc1cc2c(ccn2C(=O)NC)cc1Oc1ccnc(NC(=O)c2ccc(CN3CC[C@@H](O)C3)cc2)c1` [Example 106], the IC50 in experiment [2] came out at 726 nM. Turning to `CNC(=O)n1ccc2cc(Oc3ccnc(NC(=O)c4ccc(CN5CCC[C@@H]5CO)cc4)c3)c(OCCCOC)cc21` [Example 116], in experiment [2], the IC50 was 520 nM. The same measure, in the same setting: under `CNC(=O)n1ccc2cc(Oc3ccnc(NC(=O)c4ccc(CN5CC[C@H](O)C5)cc4)c3)c(OCCCOC)cc21` [Example 120] stands 457 nM. The same measure, in the same setting: under `CNC(=O)n1ccc2cc(Oc3ccnc(NC(=O)c4ccc(C5CCN(C(C)C)CC5)cc4)c3)c(OCCCOC)cc21` [Example 127] stands 226 nM.
